{"source": "patent US10092584B2", "about": "(Achillion Pharmaceuticals, Inc., priority 2015, dated 2018)", "biological_target": "T1, Human Factor D (Homo sapiens, UniProt P00746)", "T1 construct": "purified from human serum; purchased Complement Technology, Inc; host or cells: human serum", "T1 sequence (P00746 26-253)": "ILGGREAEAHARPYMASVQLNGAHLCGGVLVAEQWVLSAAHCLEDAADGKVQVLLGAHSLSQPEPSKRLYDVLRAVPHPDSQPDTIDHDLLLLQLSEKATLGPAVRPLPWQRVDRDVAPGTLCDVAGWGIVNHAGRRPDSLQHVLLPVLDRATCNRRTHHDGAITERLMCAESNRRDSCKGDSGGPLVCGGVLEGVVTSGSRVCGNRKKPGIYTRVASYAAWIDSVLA", "assay": "Human Factor D assay (Example 8)", "type": "biochemical", "summary_of_the_method": "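Factor D (from human serum) 80 nM final + cpd, 5 min RT, 50 mM Tris/1M NaCl pH 7.5; add Z-L-Lys-SBzl 100 μM and DTNB 100 μM final. IC50 by nonlinear fit of rates vs [cpd].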", "key": {"[1]": {"conditions": "Table 1, Human Factor D 80 nM, substrate Z-L-Lys-SBzl, read-out: IC50"}, "[2]": {"conditions": "Table 3, Human Factor D 80 nM, substrate Z-L-Lys-SBzl, read-out: IC50 (Stars)"}, "[3]": {"conditions": "Table 2, Human Factor D 80 nM, substrate Z-L-Lys-SBzl, read-out: IC50"}}, "note": "Where two headings read alike, the source gives them in different places."}
{"smiles": "O=C(O)CCC(=O)N1CCc2c(n(CC(=O)N3C[C@H](F)C[C@H]3C(=O)NCc3cccc(Cl)c3F)c3ccccc23)C1", "note": "[Compound 72, 4-(9-(2-((2S,4R)-2-(3-chloro-2-fluorobenzylcarbamoyl)-4-fluoropyrrolidin-1-yl)-2-oxoethyl)-3,4-dihydro-1H-pyrido[3,4-b]indol-2(9H)-yl)-4-oxobutanoic acid]", "values": [{"measurement": "IC50", "setting": "[1]", "value": "> 10", "unit": "µM"}]}
{"smiles": "NC(=O)c1nn(CC(=O)N2C[C@H](O)C[C@H]2C(=O)Nc2cccc(-c3ccccc3Cl)c2F)c2ccccc12", "note": "[Compound 336, 1-(2-((2S,4R)-2-((2′-chloro-2-fluoro-[1,1′-biphenyl]-3-yl)carbamoyl)-4-hydroxypyrrolidin-1-yl)-2-oxoethyl)-1H-indazole-3-carboxamide]", "values": [{"measurement": "IC50", "setting": "[2]", "value": "< 1", "unit": "µM"}]}
{"smiles": "CC(=O)c1cn(CC(=O)N2C[C@H](F)C[C@H]2c2ncc(-c3cccc(Cl)c3)[nH]2)c2ccccc12", "note": "[Compound 11, 2-(3-acetyl-1H-indol-1-yl)-1-((2S,4R)-2-(5-(3-chlorophenyl)-1H-imidazol-2-yl)-4-fluoropyrrolidin-1-yl)ethanone]", "values": [{"measurement": "IC50", "setting": "[1]", "value": "> 10", "unit": "µM"}]}
{"smiles": "NC(=O)c1cn(CC(=O)N2C[C@H](F)C[C@H]2c2nc3cc(-c4ccccc4Cl)ccc3[nH]2)c2ccccc12", "note": "[Compound 121, 1-(2-((2S,4R)-2-(5-(2-chlorophenyl)-1H-benzo[d]imidazol-2-yl)-4-fluoropyrrolidin-1-yl)-2-oxoethyl)-1H-indole-3-carboxamide]", "values": [{"measurement": "IC50", "value": "> 10", "unit": "µM"}]}
{"smiles": "CC(=O)c1nn(CC(=O)N2C[C@H](F)C[C@H]2C(=O)Nc2cccc(-c3ccccc3Cl)c2F)c2cc(C)sc12", "note": "[Compound 323, (2S,4R)-1-(2-(3-Acetyl-5-methyl-1H-thieno[3,2-c]pyrazol-1-yl)acetyl)-N-(2′-chloro-2-fluoro-[1,1′-biphenyl]-3-yl)-4-fluoropyrrolidine-2-carboxamide]", "values": [{"measurement": "IC50", "setting": "[2]", "value": "< 1", "unit": "µM"}]}
{"smiles": "COc1ccc2c(O[C@@H]3C[C@@H](C(=O)NCc4cccc(Cl)c4F)N(C(=O)Cn4cc(C(C)=O)c5ccccc54)C3)cc(-c3ccccc3)nc2c1", "note": "[Compound 29, (2S,4R)-1-(2-(3-acetyl-1H-indol-1-yl)acetyl)-N-(3-chloro-2-fluorobenzyl)-4-(7-methoxy-2-phenylquinolin-4-yloxy)pyrrolidine-2-carboxamide]", "values": [{"measurement": "IC50", "value": "> 10", "unit": "µM"}]}
{"smiles": "CC(=O)c1cn(CC(=O)N2C[C@H](F)C[C@H]2C(=O)NCc2cc(P(=O)(O)O)cc(Cl)c2F)c2ccccc12", "note": "[Compound 63, 3-(((2S,4R)-1-(2-(3-acetyl-1H-indol-1-yl)acetyl)-4-fluoropyrrolidine-2-carboxamido)methyl)-5-chloro-4-fluorophenylphos-phonic acid]", "values": [{"measurement": "IC50", "value": "< 1", "unit": "µM"}]}
{"smiles": "NC(=O)c1nn(CC(=O)N2C(=O)CC[C@H]2C(=O)Nc2cccc(-c3ccccc3Cl)c2F)c2ccccc12", "note": "[Compound 260, (S)-1-(2-(2-(2′-Chloro-2-fluorobiphenyl-3-ylcarbamoyl)-5-oxopyrrolidin-1-yl)-2-oxoethyl)-1H-indazole-3-carboxamide]", "values": [{"measurement": "IC50", "setting": "[2]", "value": "< 1", "unit": "µM"}]}
{"smiles": "CC(=O)c1cn(CC(=O)N2C[C@H](F)C[C@H]2C(=O)Nc2cccc(-c3ccccc3Cl)c2F)c2cc(F)ccc12", "note": "[Compound 325, (2S,4R)-1-(2-(3-acetyl-6-fluoro-1H-indol-1-yl)acetyl)-N-(2′-chloro-2-fluoro-[1,1′-biphenyl]-3-yl)-4-fluoropyrrolidine-2-carboxamide]", "values": [{"measurement": "IC50", "setting": "[2]", "value": "< 1", "unit": "µM"}]}
{"smiles": "NC(=O)c1nn(CC(=O)N2C[C@@H](O)C[C@H]2C(=O)Nc2cccc(-c3ccccc3Cl)c2F)c2ccccc12", "note": "[Compound 354, 1-(2-((2S,4S)-2-((2′-chloro-2-fluoro-[1,1′-biphenyl]-3-yl)carbamoyl)-4-hydroxypyrrolidin-1-yl)-2-oxoethyl)-1H-indazole-3-carboxamide]", "values": [{"measurement": "IC50", "setting": "[2]", "value": "< 1", "unit": "µM"}]}
{"smiles": "NC(=O)c1nn(CC(=O)N2C[C@H](F)C[C@H]2C(=O)Nc2cccc(-c3cc(OC(F)(F)F)ccc3Cl)c2F)c2ccccc12", "note": "[Compound 120, 1-(2-((2S,4R)-2-(2′-chloro-2-fluoro-5′-(trifluoromethoxy)biphenyl-3-ylcarbamoyl)-4-fluoropyrrolidin-1-yl)-2-oxoethyl)-1H-indazole-3-carboxamide]", "values": [{"measurement": "IC50", "value": "< 1", "unit": "µM"}]}
{"smiles": "O=C(c1cn(CC(=O)N2C[C@H](F)C[C@H]2C(=O)NCc2cccc(Cl)c2F)c2ccccc12)C1CC1", "note": "[Compound 24, (2S,4R)-N-(3-chloro-2-fluorobenzyl)-1-(2-(3-(cyclopropanecarbonyl)-1H-indol-1-yl)acetyl)-4-fluoropyrrolidine-2-carboxamide]", "values": [{"measurement": "IC50", "setting": "[1]", "value": "< 1", "unit": "µM"}]}
{"smiles": "NC(=O)c1nn(CC(=O)N2C[C@H](F)C[C@H]2C(=O)Nc2cccc(-c3ccccc3Cl)c2F)c2c1CCCC2", "note": "[Compound 104, 1-(2-((2S,4R)-2-((2′-chloro-2-fluoro-[1,1′-biphenyl]-3-yl)carbamoyl)-4-fluoropyrrolidin-1-yl)-2-oxoethyl)-4,5,6,7-tetrahydro-1H-indazole-3-carboxamide]", "values": [{"measurement": "IC50", "setting": "[1]", "value": "< 1", "unit": "µM"}]}
{"smiles": "CC(=O)c1cn(CC(=O)N2C[C@H](F)C[C@H]2C(=O)Nc2cccc(SC(F)(F)F)c2)c2cc(O)ccc12", "note": "[Compound 48, (2S,4R)-1-(2-(3-acetyl-6-hydroxy-1H-indol-1-yl)acetyl)-4-fluoro-N-(3-(trifluoromethylthio)phenyl)pyrrolidine-2-carboxamide]", "values": [{"measurement": "IC50", "value": "< 1", "unit": "µM"}]}
{"smiles": "NC(=O)c1nn(CC(=O)N2C[C@H](F)C[C@H]2C(=O)Nc2cccc(-c3ccccc3Cl)c2F)c2cc(Cl)sc12", "note": "[Compound 139, 5-Chloro-1-(2-((2S,4R)-2-((2′-chloro-2-fluoro-[1,1′-biphenyl]-3-yl)carbamoyl)-4-fluoropyrrolidin-1-yl)-2-oxoethyl)-1H-thieno[3,2-c]pyrazole-3-carboxamide]", "values": [{"measurement": "IC50", "setting": "[3]", "value": "< 1", "unit": "µM"}]}
{"smiles": "CC(=O)c1cn(CC(=O)N2C[C@H](F)C[C@H]2C(=O)N(C)Cc2cccc(Cl)c2F)c2ccccc12", "note": "[Compound 34, (2S,4R)-1-(2-(3-acetyl-1H-indol-1-yl)acetyl)-N-(3-chloro-2-fluorobenzyl)-4-fluoro-N-methylpyrrolidine-2-carboxamide]", "values": [{"measurement": "IC50", "setting": "[1]", "value": "> 10", "unit": "µM"}]}
{"smiles": "C=C(F)c1nn(CC(=O)N2C[C@H](F)C[C@H]2C(=O)NCc2cccc(Cl)c2F)c2cnccc12", "note": "[Compound 74, (2S,4R)-N-(3-chloro-2-fluorobenzyl)-4-fluoro-1-(2-(3-(1-fluorovinyl)-1H-pyrazolo[3,4-c]pyridin-1-yl)acetyl)pyrrolidine-2-carboxamide]", "values": [{"measurement": "IC50", "setting": "[1]", "value": "< 1", "unit": "µM"}]}
{"smiles": "Cc1cc2c(s1)c(C(N)=O)nn2CC(=O)N1C[C@H](F)C[C@H]1C(=O)Nc1cccc(Br)n1", "note": "[Compound 118, 1-(2-((2S,4R)-2-(6-bromopyridin-2-ylcarbamoyl)-4-fluoropyrrolidin-1-yl)-2-oxoethyl)-5-methyl-1H-thieno[3,2-c]pyrazole-3-carboxamide]", "values": [{"measurement": "IC50", "setting": "[1]", "value": "< 1", "unit": "µM"}]}
{"smiles": "NC(=O)c1nn(CC(=O)N2C[C@H](F)C[C@H]2C(=O)Nc2cccc(-c3ccc4[nH]cnc4c3Cl)c2F)c2ccccc12", "note": "[Compound 122, 1-(2-((2S,4R)-2-(3-(4-chloro-1H-benzo[d]imidazol-5-yl)-2-fluorophenylcarbamoyl)-4-fluoropyrrolidin-1-yl)-2-oxoethyl)-1H-indazole-3-carboxamide]", "values": [{"measurement": "IC50", "value": "< 1", "unit": "µM"}]}
{"smiles": "NC(=O)c1nn(CC(=O)N2C[C@H](F)C[C@H]2C(=O)Nc2cccc(-c3cc(F)c(F)cc3Cl)c2F)c2ccc(Br)cc12", "note": "[Compound 319, 5-bromo-1-(2-((2S,4R)-2-((2′-chloro-2,4′,5′-trifluoro-[1,1′-biphenyl]-3-yl)carbamoyl)-4-fluoropyrrolidin-1-yl)-2-oxoethyl)-1H-indazole-3-carboxamide]", "values": [{"measurement": "IC50", "setting": "[2]", "value": "< 1", "unit": "µM"}]}
{"smiles": "O=C(NCc1cccc(Cl)c1F)[C@@H]1C[C@@H](F)CN1C(=O)Cn1c2c(c3ccccc31)CCNC2", "note": "[Compound 68, (2S,4R)-N-(3-chloro-2-fluorobenzyl)-1-(2-(3,4-dihydro-1H-pyrido[3,4-b]indol-9(2H)-yl)acetyl)-4-fluoropyrrolidine-2-carboxamide]", "values": [{"measurement": "IC50", "setting": "[1]", "value": "> 10", "unit": "µM"}]}
{"smiles": "CC(=O)c1cn(CC(=O)N2[C@H](C(=O)NCc3cccc(Cl)c3F)C[C@@H]3CCCC[C@@H]32)c2cc(O)ccc12", "note": "[Compound 35, (2S,3aS,7aS)-1-(2-(3-acetyl-6-hydroxy-1H-indol-1-yl)acetyl)-N-(3-chloro-2-fluorobenzyl)octa-hydro-1H-indole-2-carboxamide]", "values": [{"measurement": "IC50", "value": "< 1", "unit": "µM"}]}
{"smiles": "CC(=O)c1cn(CC(=O)N2C[C@H](F)C[C@H]2C(=O)Nc2cccc(-c3ccccc3Cl)c2F)c2c(C#Cc3ncc(F)cn3)cccc12", "note": "[Compound 124, (2S,4R)-1-(2-(3-acetyl-7-((5-fluoropyrimidin-2-yl)ethynyl)-1H-indol-1-yl)acetyl)-N-(2′-chloro-2-fluorobiphenyl-3-yl)-4-fluoropyrrolidine-2-carboxamide]", "values": [{"measurement": "IC50", "value": "< 1", "unit": "µM"}]}
{"smiles": "NC(=O)c1nn(CC(=O)N2C[C@H](F)C[C@H]2C(=O)Nc2nc3cccc(Cl)c3[nH]2)c2ccccc12", "note": "[Compound 360, 1-(2-((2S,4R)-2-((7-chloro-1H-benzo[d]imidazol-2-yl)carbamoyl)-4-fluoropyrrolidin-1-yl)-2-oxoethyl)-1H-indazole-3-carboxamide]", "values": [{"measurement": "IC50", "setting": "[2]", "value": "< 1", "unit": "µM"}]}
{"smiles": "COc1ccc2c(O[C@@H]3C[C@@H](C(=O)NCc4cccc(Cl)c4F)N(C(=O)Nc4cn(C(C)=O)c5ccccc45)C3)cc(-c3ccccc3)nc2c1", "note": "[Compound 19, (2S,4R)-N1-(1-acetyl-1H-indol-3-yl)-N2-(3-chloro-2-fluorobenzyl)-4-(7-methoxy-2-phenylquinolin-4-yloxy)pyrrolidine-1,2-dicarboxamide]", "values": [{"measurement": "IC50", "setting": "[1]", "value": "> 10", "unit": "µM"}]}
{"smiles": "NC(=O)c1nn(CC(=O)N2CCC[C@H]2C(=O)Nc2cccc(-c3ccccc3Cl)c2F)c2ccccc12", "note": "[Compound 337, (S)-1-(2-(2-((2′-chloro-2-fluoro-[1,1′-biphenyl]-3-yl)carbamoyl)pyrrolidin-1-yl)-2-oxoethyl)-1H-indazole-3-carboxamide]", "values": [{"measurement": "IC50", "setting": "[2]", "value": "< 1", "unit": "µM"}]}
{"smiles": "NC(=O)c1nn(CC(=O)N2C[C@H](F)C[C@H]2C(=O)Nc2cccc(-c3ccccc3Cl)c2F)c2c(Cl)c(Cl)sc12", "note": "[Compound 137, 5,6-Dichloro-1-(2-((2S,4R)-2-((2′-chloro-2-fluoro-[1,1′-biphenyl]-3-yl)carbamoyl)-4-fluoropyrrolidin-1-yl)-2-oxoethyl)-1H-thieno[3,2-c]pyrazole-3-carboxamide]", "values": [{"measurement": "IC50", "setting": "[3]", "value": "< 1", "unit": "µM"}]}
